As usually defined, the MIC is the lowest concentration found to suppress growth. In general, IC50 refers to the point on the concentration scale where inhibition reaches its midpoint. For orientation: half-life means the time needed for the level to fall by half in the phase considered.

One data set relates to K. pneumoniae KL 140. The data set can be described thus: β-Lactamase inhibition activity against resistant bacteria (MIC of ceftazidime without and with Ia). Type of data set: cell-based. The conditions noted are these: Klebsiella pneumoniae, KL140, enzyme CAZ-ase, read-out: MIC, CAZ alone.
A further data set relates to E. cloacae EB 131. Described as above. Type of data set: cell-based. The note with it: Enterobacter cloacae, EB131, enzyme Type 1 Ceph'ase, read-out: MIC, CAZ alone.
A further data set has as its system E. coli EC 225. The description is as above. In kind it is cell-based. The note with it: Escherichia coli, EC225, enzyme TEM-5, read-out: MIC, CAZ alone.
A further data set concerns E. coli EC 228. Described as above. The note with it: Escherichia coli, EC228, enzyme CAZ-ase, read-out: MIC, CAZ alone. In kind it is cell-based.
The next data set deals with E. coli EC 227. Described as above. In kind it is cell-based. The conditions noted are these: Escherichia coli, EC227, enzyme CAZ-ase, read-out: MIC, CAZ alone.
The subject of the next data set is K. pneumoniae KL 141. The data set is described as above. In kind it is cell-based. The note with it: Klebsiella pneumoniae, KL141, enzyme CAZ-ase, read-out: MIC, CAZ alone.
Data set [1] addresses T1, Penicillinase from E. coli TEM 1 (Escherichia coli, UniProt P62593).
T1 construct: bacterial β-lactamases isolated from Enterobacter cloacae and Escherichia coli; host or cells: Escherichia coli (enzyme isolated, cell free)
The experiment in a line: β-Lactamase inhibition against isolated (cell free) enzymes, nitrocefin method. In kind it is biochemical. An excerpt: (§1) Moreover, all tested ceftazidime resistant Gram-negative pathogens became susceptible to a combination of ceftazidime and the compounds according to the invention. Thus, these compounds are also very potent β-lactamase inhibitors. The very high activity as β-lactamase inhibitors of the compounds I according to the invention was also observed with isolated bacterial enzymes in the nitrocefin test (R. Reimer, Methodicum Chimicum: Antibiotics, Vitamins and Hormons; F. Korte, M. Goto, eds., Thieme, Stuttgart, 1977, p.11, E. Wasielewski, Arzneimittel, Vol. 4; Chemotherapeutica, Part 1, Verlag Chemie, Weinheim 1972).
(§2) IC50 values were determined in a 1 cm UV cell at 37° C. after a 15 min preincubation period of enzyme and the inhibitor.

The target of data set [2] is T2, β-Lactamase from Enterobacter cloacae (Enterobacter cloacae, UniProt P05364).
T2 construct: bacterial β-lactamases isolated from Enterobacter cloacae and Escherichia coli; host or cells: Enterobacter cloacae (enzyme isolated, cell free)
The description is as above. In kind it is biochemical. The conditions noted are these: 37° C., 15 min preincubation of enzyme and inhibitor.
Description: as §1, §2

A short description of data set [3]: Oral activity: plasma level and half-life in mice after oral application. In kind it is in vivo. The note with it: mouse, dose 25 mg per kg, potassium salt.
Data set [4] can be described thus: Stability in phosphate buffer (half-life of hydrolysis, UV method). The conditions noted are these: for half-life: physiological phosphate buffer pH 7.4 and 37° C., UV method. In kind it is physicochemical.
For data set [5], the system named is Pseudomonas aer. resistant. The data set can be described thus: In vitro antibacterial activity, plate test (inhibition diameter). The conditions noted are these: 10 μg, Difco Nutrient Agar, 18 hrs at 37° C. In kind it is cell-based, Pseudomonas aeruginosa. How it is done: (§3) The tests were carried out in sterile polypropylene dishes (diameter 8.5 cm) containing 10 ml of Difco Nutrient Agar. Inhibition was recorded after 18 hrs at 37° C. (inoculum ca. […] cells).

For data set [6], the system named is Pseudomonas aer. DSM 1117. Described as above. In kind it is cell-based, Pseudomonas aeruginosa. The conditions noted are these: 10 μg, Difco Nutrient Agar, 18 hrs at 37° C. How it is done:
as §3

A further data set relates to Sacharomyces cerevisiae. The experiment in a line: Cytotoxicity, agar diffusion method. In kind it is cell-based. The conditions noted are these: 1.0 mg, yeast and mold agar, 16 hrs at 30° C. How it is done:
Sterile PP dishes of 8.5 cm diameter containing 10 ml of yeast and mold agar were used. Cytotoxicity was recorded after a 16 hrs incubation period at 30° C. (inoculum approx. 10^5 cells).
For orientation: In agar diffusion tests the substance spreads into inoculated agar from a disc or well.

The test system of the next data set is Staph. aureus Innsbruck. The data set can be described thus: In vitro antibacterial activity, plate test (inhibition diameter). In kind it is cell-based. The conditions noted are these: 10 μg, Difco Nutrient Agar, 18 hrs at 37° C. The protocol: as §3
In data set [7] the test system is Enterobacter cloacae DSM 30054. The description is as above. In kind it is cell-based. The note with it: 10 μg, Difco Nutrient Agar, 18 hrs at 37° C. The protocol:
as §3

Another data set relates to Staph. aureus DSM 1104. The data set is described as above. Type of data set: cell-based. The note with it: 10 μg, Difco Nutrient Agar, 18 hrs at 37° C. How it is done: as §3
The subject of another data set is Escherichia coli TEM 1. The description is as above. In kind it is cell-based. The note with it: 10 μg, Difco Nutrient Agar, 18 hrs at 37° C. How it is done:
as §3

A further data set deals with Staph. aureus 25768. The description is as above. The note with it: 10 μg, Difco Nutrient Agar, 18 hrs at 37° C. Type of data set: cell-based. How it is done: as §3
A further data set relates to Staph. aureus resistant. The description is as above. The note with it: 10 μg, Difco Nutrient Agar, 18 hrs at 37° C. Type of data set: cell-based. The protocol: as §3
In data set [8] the test system is Escherichia coli DSM 1103. The data set is described as above. In kind it is cell-based. The conditions noted are these: 10 μg, Difco Nutrient Agar, 18 hrs at 37° C. How it is done: as §3
In a further data set the test system is Enterococcus. The data set is described as above. The note with it: 10 μg, Difco Nutrient Agar, 18 hrs at 37° C. In kind it is cell-based. How it is done: as §3

T2 sequence (P05364 21-381): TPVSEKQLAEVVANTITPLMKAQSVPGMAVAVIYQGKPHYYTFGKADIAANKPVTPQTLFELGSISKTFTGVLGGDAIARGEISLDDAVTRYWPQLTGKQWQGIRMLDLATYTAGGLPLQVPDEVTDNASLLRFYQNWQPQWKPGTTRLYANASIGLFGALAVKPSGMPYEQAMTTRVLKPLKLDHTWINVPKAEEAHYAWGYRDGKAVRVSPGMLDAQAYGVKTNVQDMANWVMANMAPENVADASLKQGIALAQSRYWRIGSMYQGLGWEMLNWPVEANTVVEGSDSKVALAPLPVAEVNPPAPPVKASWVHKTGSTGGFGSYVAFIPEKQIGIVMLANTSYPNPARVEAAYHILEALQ
T1 sequence (P62593 24-286 limits assumed): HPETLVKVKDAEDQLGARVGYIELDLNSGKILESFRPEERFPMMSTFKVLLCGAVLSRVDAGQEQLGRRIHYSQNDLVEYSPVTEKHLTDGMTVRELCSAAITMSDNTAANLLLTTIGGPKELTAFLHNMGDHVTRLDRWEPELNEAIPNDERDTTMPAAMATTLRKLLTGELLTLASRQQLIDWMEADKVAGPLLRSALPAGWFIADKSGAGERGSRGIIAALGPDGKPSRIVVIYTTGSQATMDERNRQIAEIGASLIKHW

Regarding `CC(C)(O/N=C(\C(=O)N[C@@H]1C(=O)N2C(C(=O)[O-])=C(C[n+]3ccccc3)CS[C@H]12)c1csc(N)n1)C(=O)O` [CAZ, ceftazidime], the MIC was above 64 µg/mL in the data set with K. pneumoniae KL 140; above 64 µg/mL with E. cloacae EB 131; 64 µg/mL in the data set with E. coli EC 225; 16 µg/mL with E. coli EC 228; above 64 µg/mL with E. coli EC 227; above 64 µg/mL with K. pneumoniae KL 141.
With `COCSC1=C(C(=O)O)N2C(=O)[C@H]([C@@H](C)O)[C@H]2[C@H]1C` [Ia, Potassium (4R,5S,6S)-6-((1′R)-hydroxyethyl)-3-(methoxymethylthio)-4-methyl-7-oxo-1-azabicyclo[3.2.0]hept-2-ene-2-carboxylate], the figures for the IC50 in data set [1] and in data set [2] were 200 nM and 4 nM, respectively. Also, in data set [3] (plasma), the concentration at 10 min worked out at 5600 ng/mL. Moreover, the half-life was 25 min in [3] (serum, 25 mg/kg, read-out: Approximative serum half-life) and 3000 min in data set [4].
As to `CC(O)C1C(=O)N2C(C(=O)O)=C(SCOCCN)C(C)C12` (centres unmarked) [Ib], the inhibition diameter is on record as 17 mm in data set [5]; 27 mm in data set [6]; 9 mm in the data set with Staph. aureus Innsbruck; 26 mm in data set [7]; 39 mm in the data set on Staph. aureus DSM 1104; 33 mm with Escherichia coli TEM 1. Also, the inhibition diameter with Staph. aureus 25768 worked out at 28 mm; with Staph. aureus resistant, 35 mm; in [8], 30 mm; in the data set with Enterococcus, 21 mm. The “inhibition diameter (cytotoxicity)” value with Sacharomyces cerevisiae is given as 0 mm. Besides, the IC50 in data set [1] was determined as 550 nM; in [2], 8.5 nM. Further, the half-life in data set [4] is 3000 min.
Take `CC(O)C1C(=O)N2C(C(=O)O)=C(SCOCCNC=N)C(C)C12` [Ic, (4R,5S,6S)-3-((2-(Formimidoylamino)ethoxv)methylthio)-((1′R)-hydroxyethyl)-4-methyl-7-oxo-1-azabicyclo[3.2.0]hept-2-ene-2-carboxylic acid]: the inhibition diameter is 13 mm in data set [5]; 25 mm in [6]; 8 mm in the data set with Staph. aureus Innsbruck; 25 mm in data set [7]; 39 mm in the data set with Staph. aureus DSM 1104; 33 mm in the data set on Escherichia coli TEM 1. Moreover, the inhibition diameter in the data set on Staph. aureus 25768 worked out at 26 mm; with Staph. aureus resistant, 35 mm; in data set [8] it was 30 mm; with Enterococcus, 21 mm. Further, in data set [4], the half-life was 2100 min.
In data set [4], `CC(O)C1C(=O)N2C(C(=O)O)=C(SCOC(C)(C)CN)C(C)C12` [Id, (4R,5S,6S)-3-((2-amino-1,1-dimethylethoxy)methylthio)-6-((1′R)-hydroxyethyl)-4-methyl-7-oxo-1-azabicyclo[3.2.0]hept-2-ene-2-carboxylic acid] showed a half-life of 3000 min.
As for `CC(=O)NCSC1=C(C(=O)O)N2C(=O)[C@H]([C@@H](C)O)[C@H]2[C@H]1C` [Ie, Potassium (4R,5S,6S)-3-(acetamidomethylthio)-((1′R)-hydroxyethyl)-4-methyl-7-oxo-1-azabicyclo[3.2.0]hept-2-ene-2-carboxylate], the inhibition diameter is recorded as 16 mm in [6]; 27 mm in data set [7]; 36 mm in the data set on Staph. aureus DSM 1104; 34 mm with Escherichia coli TEM 1; 27 mm in the data set with Staph. aureus 25768; 32 mm in the data set with Staph. aureus resistant. For the same molecule, the inhibition diameter is listed as 32 mm in [8] and 18 mm in the data set on Enterococcus. Moreover, the “inhibition diameter (cytotoxicity)” value in the data set on Sacharomyces cerevisiae came out at 0 mm. In addition, the IC50 in [1] worked out at 300 nM; in data set [2] it was 6 nM. The same molecule showed a half-life in [4] of 2400 min.
In the case of `CC(O)C1C(=O)N2C(C(=O)O)=C(SCNC(=O)CN)C(C)C12` [If, (4R,5S,6S)-3-((2-Aminoacetamido)methylthio-6-((1′R)-hydroxyethyl)-4-methyl-7-oxo-1-azabicyclo[3.2.0]hept-2-ene-2-carboxylic acid], the inhibition diameter was found to be 14 mm in [5]; 18 mm in data set [6]; 12 mm with Staph. aureus Innsbruck; 23 mm in data set [7]; 33 mm with Staph. aureus DSM 1104; 33 mm in the data set on Escherichia coli TEM 1. For the same molecule, the inhibition diameter was found to be 25 mm in the data set on Staph. aureus 25768, 30 mm in the data set with Staph. aureus resistant, 27 mm in data set [8] and 20 mm with Enterococcus. The “inhibition diameter (cytotoxicity)” value in the data set on Sacharomyces cerevisiae came to 0 mm. In [4], the half-life is 960 min.
With `CCN1CCN(CSC2=C(C(=O)[O-])N3C(=O)[C@H]([C@@H](C)O)[C@H]3[C@H]2C)C(=O)C1=O.[K+]` [Ig, Potassium (4R,5S,6S)-3-((2,3-dioxo-4-ethyl-piperazinyl)methylthio)-6-((1′R)-hydroxyethyl)-4-methyl-7-oxo-1-azabicyclo[3.2.0]hept-2-ene-2-carboxylate], the half-life of hydrolysis in data set [4] (buffer, pH 7.4) stood at 42 h.
